Where two headings read alike, the source gives them in different places.

Assay [1] addresses T1, recombinant human NF-kappaB-inducing kinase (NIK/MAP3K14) (Homo sapiens, UniProt Q99558). The assay can be described thus: Biological Assay A: inhibition of recombinant human NF-kappaB-inducing kinase (NIK/MAP3K14) activity (MBP phosphorylation, Mesoscale). As to conditions: MSD MBP; averaged over all measurements on all batches; read-out: Assay A Biochemical (MSD MBP) IC50. The protocol:
Pharmacological Part Biological Assay A Inhibition of Recombinant Human NF-kappaB-Inducing Kinase (NIK/MAP3K14) Activity
Assay buffer was 50 mM Tris pH 7.5 containing 1 mM EGTA (ethylene glycol tetraacetic acid), 1 mM DTT (dithiothreitol), 0.1 mM Na3VO4, 5 mM MgCl2, 0.01% Tween® 20. Assays were carried out in 384 well Mesoscale high binding plates which had been coated with myelin basic protein (MBP) and blocked with bovine serum albumin to prevent non-specific protein binding. All compounds tested were dissolved in dimethyl sulfoxide (DMSO) and further dilutions were made in assay buffer. Final DMSO concentration was 1% (v/v) in assays. Incubations consisted of compound (1% DMSO in control and blank wells), 25 μM […] (ATP), and 10 nM NIK/MAP3K14 substituting enzyme with buffer in the blank wells. Incubations were carried out for 1 h at 25° C. and were followed by washing and sequential incubation with rabbit anti-phospho-MBP and anti-rabbit Ig Sulfotag antibody before reading bound Sulfotag on a Mesoscale Discovery. Signal obtained in the wells containing blank samples was subtracted from all other wells and […] were determined by fitting a sigmoidal curve to % inhibition of control versus Log10 compound concentration.
(§1) Data for the compounds of the invention in the above assays are provided in Table A (the values in Table are averaged values over all measurements on all batches of a compound; values as IC50 (nM)). (‘n.c.’ means not calculated: ‘Co.’ means compound)

Assay [2] deals with P-IKKα levels in L363 (NIK translocated multiple myeloma) cells. The assay can be described thus: Biological Assay C: effect of compounds on P-IKKα levels in L363 (NIK translocated multiple myeloma) cells, performed at 2 locations. The assay is classed as cell-based, human. As to conditions: L363 cells, P-IKKα levels, averaged values, read-out: Assay C location 2 IC50. On the procedure:
Effect of Compounds on P-IKKα Levels in L363 (NIK Translocated Multiple Myeloma) Cells
All compounds tested were dissolved in DMSO and further dilutions were made in culture medium. Final DMSO concentration was 1% (v/v) in cell assays. The human L363 cells (ATCC) were cultured in RPMI 1640 medium supplemented with GlutaMax and 10% fetal calf serum (PAA). Cells were routinely maintained at densities of 0.2×10^6 cells per ml-1×10^6 cells per ml at 37° C. in a humidified 5% CO2 atmosphere. Cells were passaged twice a week splitting back to obtain the low density. Cells were seeded in 96 well plates (Nunc 167008) at 2×10^6 per ml media in a volume of 75 μl per well plus 25 μl […] recombinant human B-cell activating factor (BAFF/BLyS/TNFSF13B). Seeded cells were incubated at 37° C. in a humidified 5% CO2 atmosphere for 24 hr. Drugs and/or solvents were added (20 μl) to a final volume of 120 μl. Following 2 hr treatment plates were removed from the incubator and cell lysis was achieved by the addition of 30 μl 5× lysis buffer followed by shaking on a plate shaker at 4° C. for 10 min. At the end of this incubation lysed cells were centrifuged at 800×g for 20 min at 4° C. and the lysate was assessed for P-IKKα levels by sandwich immuno-assay carried out in anti-rabbit antibody coated Mesoscale plates. Within an experiment, the results for each treatment were the mean of 2 replicate wells. For initial screening purposes, compounds were tested using an 8 point dilution curve (serial 1:3 dilutions). For each experiment, controls (containing MG132 and BAFF but no test drug) and a blank incubation (containing MG132 and BAFF and 1 μM ADS125117, a test concentration known to give full inhibition) were run in parallel. The blank incubation value was subtracted from all control and sample values. To determine the IC50 a sigmoidal curve was fitted to the plot of % inhibition of control P-IKKα levels versus Log10 compound concentration.
Assay C was performed at 2 different locations.
as §1

Assay [3] concerns the target T1, recombinant human NF-kappaB-inducing kinase (NIK/MAP3K14). The assay can be described thus: Biological Assay B: inhibition of auto-phosphorylation of recombinant human NIK/MAP3K14 (AlphaScreen), performed at 2 locations. It is filed as biochemical. As to conditions: location 1; AlphaScreen auto-phosphorylation; averaged values; read-out: Assay B location 1 IC50. Put shortly:
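GST-tagged NIK (0.2 nM) auto-phosphorylation with 25 microM ATP in 50 mM Tris pH 7.5, 5 mM MgCl2, 1% DMSO, 1 h at 25° C. Anti-phospho-IKK Ser176/180 AlphaScreen readout; blank-subtracted IC50 from sigmoidal fit. Run at two sites.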

[4] abbreviates: Homo sapiens, L-363, location 2.

T1 sequence (Q99558 whole entry): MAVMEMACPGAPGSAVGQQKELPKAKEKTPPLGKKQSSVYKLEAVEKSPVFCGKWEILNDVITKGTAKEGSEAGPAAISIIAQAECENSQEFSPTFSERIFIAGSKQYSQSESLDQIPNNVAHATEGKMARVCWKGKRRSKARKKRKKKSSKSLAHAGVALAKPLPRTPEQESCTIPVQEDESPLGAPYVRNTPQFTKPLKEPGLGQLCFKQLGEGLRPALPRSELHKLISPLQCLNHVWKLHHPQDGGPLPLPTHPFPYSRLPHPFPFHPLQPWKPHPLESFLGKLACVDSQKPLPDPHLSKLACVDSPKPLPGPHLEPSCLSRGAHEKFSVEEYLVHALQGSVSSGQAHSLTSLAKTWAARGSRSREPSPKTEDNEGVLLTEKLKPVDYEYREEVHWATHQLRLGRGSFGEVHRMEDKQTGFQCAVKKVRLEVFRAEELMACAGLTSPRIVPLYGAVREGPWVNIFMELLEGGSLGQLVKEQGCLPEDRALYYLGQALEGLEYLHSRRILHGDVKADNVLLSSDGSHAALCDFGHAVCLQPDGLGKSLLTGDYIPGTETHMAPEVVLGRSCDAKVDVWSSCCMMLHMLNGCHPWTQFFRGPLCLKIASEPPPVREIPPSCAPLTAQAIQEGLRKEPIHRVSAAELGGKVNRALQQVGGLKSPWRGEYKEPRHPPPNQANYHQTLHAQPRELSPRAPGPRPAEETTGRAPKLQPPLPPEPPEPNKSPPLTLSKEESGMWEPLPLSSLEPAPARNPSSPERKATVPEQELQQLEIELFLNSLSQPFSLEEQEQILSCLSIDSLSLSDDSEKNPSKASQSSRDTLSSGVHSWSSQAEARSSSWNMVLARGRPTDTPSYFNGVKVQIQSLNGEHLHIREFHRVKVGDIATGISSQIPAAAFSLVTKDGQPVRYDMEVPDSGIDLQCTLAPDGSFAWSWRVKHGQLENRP

For `COc1c(Nc2nccc(-c3cnc4c(c3)C(C)(C)CN4)n2)cccc1C(=O)N1CCOCC1` [Compound 112], in assay [1], the half-inhibitory concentration (IC50) (as a rule, the point on the concentration scale where inhibition reaches its midpoint) is 417 nM.

For the compound `CCC(=O)NCc1cccc(Nc2nccc(-c3cnc4c(c3)C(C)(C)CN4)n2)c1C` [Compound 64], the IC50 was 13.5 nM in assay [1] and 407 nM in assay [2] (setting [4]).

Regarding `Cc1cc(N2CCOCC2)ccc1Nc1nccc(-c2cnc3c(c2)C(C)(C)CN3)n1` [Compound 117], the values for the IC50 in assay [1] and in assay [2] (setting [4]) were 162 nM and over 10000 nM, respectively.

Turning to `CC(=O)NCc1ccc(Nc2nccc(-c3cnc4c(c3)C(C)(C)CN4)n2)c(C(F)(F)F)c1` [Compound 67], the IC50 in assay [1] was determined as 45.7 nM; in assay [2] (setting [4]), 1660 nM.

With `Cc1cc(C(=O)N2CCS(=O)(=O)CC2)ccc1Nc1nccc(-c2cnc3c(c2)C(C)(C)CN3)n1` [Compound 100], the IC50 was found to be 6.6 nM in assay [1] and 174 nM in assay [2] (setting [4]).

Take `COCC(=O)NCc1ccc(Nc2nccc(-c3cnc4c(c3)C(C)(C)CN4)n2)c(C)c1` [Compound 76]: the results for the IC50 in assay [1] and in assay [2] (setting [4]) were 13.5 nM and 182 nM, respectively.

As to `COc1c(Nc2nccc(-c3cnc4c(c3)C(C)(C)CN4)n2)cccc1C(=O)NC1CCOCC1` [Compound 113], the IC50 in assay [1] worked out at 288 nM.

On to `COc1cc(Nc2nccc(-c3cnc4c(c3)C(C)(C)CN4)n2)c(C)c(C(=O)N2CCC(O)CC2)c1` [Compound 107], for which the figures for the IC50 in assay [1] and in assay [2] (setting [4]) were 13.5 nM and 72.4 nM, respectively.

In the case of `CC(=O)NCc1ccc(Nc2nccc(-c3cnc4c(c3)C(C)(C)CN4)n2)c(OC(F)(F)F)c1` [Compound 77], the concentration for half-maximal inhibition (IC50) is 56.2 nM in assay [1] and 126 nM in assay [2] (setting [4]).

Take `Cc1cc(C(=O)N2CC(C)(O)C2)ccc1Nc1nccc(-c2cnc3c(c2)C(C)(C)CN3)n1` [Compound 80]: the IC50 in assay [1] worked out at 39.8 nM; in assay [2] (setting [4]), 646 nM.

For `CC(=O)NCc1ccc(Nc2nccc(-c3cnc4c(c3)C(C)(C)CN4)n2)c(F)c1` [Compound 83], the IC50 was 35.5 nM in assay [1] and 2690 nM in assay [2] (setting [4]).

For the compound `Cc1cc(C#N)ccc1Nc1nccc(-c2cnc3c(c2)C(C)(C)CN3)n1` [Compound 115], the half-maximal inhibitory concentration (IC50) in assay [1] stood at 457 nM.

As for `COc1ccc(S(C)(=O)=O)cc1Nc1nccc(-c2cnc3c(c2)C(C)(C)CN3)n1` [Compound 119], the IC50 was determined as 295 nM in assay [1] and 5500 nM in assay [2] (setting [4]).

As to `COc1cc(Nc2nccc(-c3cnc4c(c3)C(C)(C)CN4)n2)c(C)c(C(=O)NC2CN(C)C2)c1` [Compound 51], the IC50 in assay [1] stood at 6.9 nM; in assay [2] (setting [4]) it was 112 nM.

Consider `Cc1cc(C(=O)N2CCC(C#N)CC2)ccc1Nc1nccc(-c2cnc3c(c2)C(C)(C)CN3)n1` [Compound 99], for which the results for the IC50 in assay [1] and in assay [2] (setting [4]) were 7.4 nM and 144 nM, respectively.

For `CC1(C)CNc2ncc(-c3ccnc(Nc4ccc(C(=O)NC5CCOCC5)cc4C(F)F)n3)cc21` [Compound 110], the values for the IC50 in assay [1] and in assay [2] (setting [4]) were 129 nM and 2340 nM, respectively.

As for `COC1CCN(C(=O)c2ccc(Nc3nccc(-c4cnc5c(c4)C(C)(C)CN5)n3)c(OC(F)F)c2)CC1` [Compound 129], the half-inhibitory concentration (IC50) came to 15.9 nM in assay [1] and 229 nM in assay [2] (setting [4]).

Turning to `CC1(C)CNc2ncc(-c3ccnc(Nc4ccc(C(=O)N5CCC(C#N)CC5)cc4OC(F)F)n3)cc21` [Compound 128], the IC50 in assay [1] came to 7.9 nM; in assay [2] (setting [4]) it was 191 nM.

For the compound `Cc1cc(C(=O)NC2CCOCC2)ccc1Nc1nccc(-c2cnc3c(c2)C(C)(CCO)CN3)n1` (centres unmarked) [Compound 124], the IC50 in assay [1] stood at 7.8 nM; in assay [2] (setting [4]) it was 2750 nM.

Take `Cc1cc(C(=O)N2CCC(CCO)CC2)ccc1Nc1nccc(-c2cnc3c(c2)C(C)(C)CN3)n1` [Compound 53]: the half-inhibitory concentration (IC50) in assay [1] was 4.1 nM; in assay [2] (setting [4]) it was 174 nM.

Take `CC(=O)NC(C)c1cccc(Nc2nccc(-c3cnc4c(c3)C(C)(C)CN4)n2)c1` (centres unmarked) [Compound 96]: the IC50 in assay [1] is 13.5 nM; in assay [2] (setting [4]), about 6310 nM.

As for `COC1CCN(C(=O)c2ccc(Nc3nccc(-c4cnc5c(c4)C(C)(CO)CN5)n3)c(C)c2)CC1` (centres unmarked) [Compound 133], the IC50 stood at 5.8 nM in assay [1] and 129 nM in assay [2] (location 2).

In the case of `Cc1cc(C(=O)N2CCOCC2)ccc1Nc1nccc(-c2cnc3c(c2)C(C)(C)CN3)n1` [Compound 78], the half-inhibitory concentration (IC50) is 16.6 nM in assay [1] and over 10000 nM in assay [2] (setting [4]).

On to `COCC(=O)NCc1cccc(Nc2nccc(-c3cnc4c(c3)C(C)(C)CN4)n2)c1C` [Compound 66], for which the figures for the 50% inhibitory concentration (IC50) in assay [1] and in assay [2] (setting [4]) were 10.7 nM and 363 nM, respectively.

Turning to `COc1c(Nc2nccc(-c3cnc4c(c3)C(C)(C)CN4)n2)cccc1C(=O)N1CCC(O)CC1` [Compound 114], the IC50 is 251 nM in assay [1] and over 10000 nM in assay [2] (setting [4]).

`CCC(=O)NCc1ccc(Nc2nccc(-c3cnc4c(c3)C(C)(C)CN4)n2)c(C)c1` [Compound 74]: the IC50 in assay [1] was found to be 6.8 nM; in assay [2] (setting [4]), 67.6 nM.

As to `Cc1cc(C(=O)N2CCC(C(C)(C)O)CC2)ccc1Nc1nccc(-c2cnc3c(c2)C(C)(C)CN3)n1` [Compound 98], the figures for the IC50 in assay [1] and in assay [2] (setting [4]) were 13.5 nM and 93.3 nM, respectively.

Regarding `CN1CCC(NC(=O)c2ccc(Nc3nccc(-c4cnc5c(c4)C(C)(C)CN5)n3)c(C(F)(F)F)c2)CC1` [Compound 91], the IC50 was 339 nM in assay [1] and over 10000 nM in assay [2] (setting [4]).

Regarding `Cc1cc(CNC(=O)C(C)C)ccc1Nc1nccc(-c2cnc3c(c2)C(C)(C)CN3)n1` [Compound 75], the IC50 in assay [1] was determined as 12.3 nM; in assay [2] (setting [4]), 135 nM.

Regarding `CC(=O)NCc1ccc(Nc2nccc(-c3cnc4c(c3)C(C)(C)CN4)n2)c(Br)c1` [Compound 63], the concentration for half-maximal inhibition (IC50) in assay [1] amounted to 8.3 nM; in assay [2] (setting [4]) it was 75.9 nM.

As for `COCCNC(=O)c1cc(OC)cc(Nc2nccc(-c3cnc4c(c3)C(C)(C)CN4)n2)c1C` [Compound 106], the figures for the 50% inhibitory concentration (IC50) in assay [1] and in assay [2] (setting [4]) were 15.9 nM and 95.5 nM, respectively.

`CC(=O)NCc1ccc(Nc2nccc(-c3cnc4c(c3)C(C)(C)CN4)n2)c(Cl)c1` [Compound 72]: the concentration for half-maximal inhibition (IC50) came out at 6.5 nM in assay [1] and 53.7 nM in assay [2] (setting [4]).

In the case of `COc1cc(C#N)ccc1Nc1nccc(-c2cnc3c(c2)C(C)(C)CN3)n1` [Compound 116], the IC50 in assay [1] came to 309 nM; in assay [2] (setting [4]) it was 3160 nM.

`COc1ccc(C)c(Nc2nccc(-c3cnc4c(c3)C(C)(C)CN4)n2)c1CNC(C)=O` [Compound 135]: the IC50 in assay [1] was over 10000 nM.

Turning to `COc1cc(Nc2nccc(-c3cnc4c(c3)C(C)(C)CN4)n2)c(C)c(C(=O)N2CCOCC2)c1` [Compound 108], the IC50 in assay [1] came to 15.1 nM; in assay [2] (setting [4]), 102 nM.

For `Cc1cc(C(=O)O)ccc1Nc1nccc(-c2cnc3c(c2)C(C)(C)CN3)n1` [Compound 97], the IC50 is about 501 nM in assay [1] and over 10000 nM in assay [3].

Consider `CC1(C)CNc2ncc(-c3ccnc(Nc4ccc(C(=O)NC5CCOCC5)cc4Cl)n3)cc21` [Compound 104], for which the results for the IC50 in assay [1] and in assay [2] (setting [4]) were 61.7 nM and 398 nM, respectively.

As to `CC1(C)CNc2ncc(-c3ccnc(Nc4ccc(C(=O)NC5CCOCC5)cc4C(F)(F)F)n3)cc21` [Compound 94], the IC50 was 347 nM in assay [1] and about 10000 nM in assay [2] (setting [4]).

With `Cc1c(CNC(=O)C(C)C)cccc1Nc1nccc(-c2cnc3c(c2)C(C)(C)CN3)n1` [Compound 65], the IC50 worked out at 24 nM in assay [1] and 617 nM in assay [2] (setting [4]).

For the origin of these results see patent US11236084B2, “Substituted azaindoline derivatives as NIK inhibitors” (Janssen Pharmaceutica NV, priority 2017, dated 2022).
